Data set [1] can be described thus: Cytotoxicity against mouse NIH/3T3 cells assessed as cell viability incubated for 72 hrs by MTT assay. Type of data set: toxicity, cell-based, NIH3T3.
A short description of data set [2]: Cytotoxicity against human HUVEC cells assessed as cell viability incubated for 72 hrs by MTT assay. Type of data set: toxicity, cell-based. A general note: Tetrazolium dyes change colour on reduction, which living cells bring about.
Data set [3] concerns BXPC-3. Kind of data set: cells. The settings on record: Homo sapiens, BXPC-3, 72 h.
Description: Antiproliferative activity against human BXPC-3 cells assessed as cell viability incubated for 72 hrs by MTT assay
Data set [4] concerns MDA-MB-231. Briefly: cells. The settings on record: Homo sapiens, MDA-MB-231, 72 h.
Description: Antiproliferative activity against human MDA-MB-231 cells assessed as cell viability incubated for 72 hrs by MTT assay
In data set [5] the test system is Osimertinib-resistant NCI-H1975 cell. Briefly: cells. The settings on record: Homo sapiens, 72 h.
A short description of data set [6]: Clearance in Sprague-Dawley rat at 5 mg/kg, iv. Type of data set: ADME, organism-based. Particulars: in vivo.
In data set [7] the test system is A549/TR. Briefly: cells. Particulars: Homo sapiens, 72 h.
Description: Antiproliferative activity against human A549/Taxol cells assessed as cell viability incubated for 72 hrs by MTT assay
Data set [8] concerns the target Tyrosine-protein kinase receptor UFO (Homo sapiens) (UniProt P30530). Particulars: dose 100.0 nM.
Description: Inhibition of AXL (unknown origin) at 100 nM by envision reader analysis relative to control
Data set [9] concerns SW480. Briefly: cells. The settings on record: Homo sapiens, SW480, 72 h.
Description: Antiproliferative activity against human SW480 cells assessed as cell viability incubated for 72 hrs by MTT assay
Data set [10] has as its system NCI-H1975. Kind of data set: cells. Particulars: Homo sapiens, NCI-H1975, 72 h.
Description: Antiproliferative activity against human NCI-H1975 cells assessed as cell viability incubated for 72 hrs by MTT assay
Data set [11] can be described thus: AUC (0 to last) in Sprague-Dawley rat at 5 mg/kg, iv. Type of data set: ADME, organism-based. Particulars: in vivo, iv, 5 mg/kg.
Data set [12] has as its system PC-9. Briefly: cells. Particulars: Homo sapiens, PC-9, 72 h.
Description: Antiproliferative activity against human PC-9 cells assessed as cell viability incubated for 72 hrs by MTT assay
For data set [13], the system named is MKN-45. Briefly: cells. Particulars: Homo sapiens, MKN-45, 72 h.
Description: Antiproliferative activity against human MKN-45 cells assessed as cell viability incubated for 72 hrs by MTT assay
Data set [14] deals with A549. Kind of data set: cells. The settings on record: Homo sapiens, A549, 72 h.
Description: Antiproliferative activity against human A549 cells assessed as cell viability incubated for 72 hrs by MTT assay
A short description of data set [15]: Oral bioavailability in Sprague-Dawley rat at 50 mg/kg. Type of data set: ADME, organism-based. Particulars: in vivo, po, 50 mg/kg.
Data set [16] is described as follows: Cytotoxicity against human HaCaT cells assessed as inhibition of cell growth. Type of data set: toxicity, cell-based.
Data set [17] has as its system BXPC-3. Kind of data set: Antitumor activity against human BXPC-3 cells xenografted in mouse assessed as tumor growth inhibition at 50 mg/kg, po administered for 14 days. Particulars: BXPC-3, 336 h, time 14 day, read-out: TGI. The class given is functional. On the technique in general: Xenograft models place foreign cells or tissue in a host animal.
A short description of data set [18]: Metabolic stability in rat liver microsome assessed as half life measured upto 240 mins by HPLC analysis. Type of data set: ADME. The settings on record: liver microsomes. On the technique in general: Liver microsomes are vesicles of endoplasmic reticulum, rich in cytochrome P450 enzymes.
Data set [19] in a line: Cytotoxicity against human HK-2 cells assessed as inhibition of cell growth. The class given is toxicity, cell-based.
Data set [20] is described as follows: Half life in Sprague-Dawley rat at 5 mg/kg, iv. Type of data set: ADME, organism-based. The settings on record: in vivo.
Data set [21] in a line: Cmax in Sprague-Dawley rat at 50 mg/kg, po. Type of data set: ADME, organism-based. Particulars: in vivo.
Data set [22] in a line: Cytotoxicity against human HEK293 cells assessed as inhibition of cell growth. The class given is toxicity, cell-based.
Data set [23] can be described thus: Tmax in Sprague-Dawley rat at 50 mg/kg, po. The class given is ADME, organism-based. The settings on record: in vivo.
In data set [24] the test system is BXPC-3. Briefly: Antitumor activity against human BXPC-3 cells xenografted in mouse assessed as reduction in tumor weight at 50 mg/kg, po administered for 14 days. Also on record: scale not given: the % may be the effect or the level left. The settings on record: time 14 day. Type of data set: functional.
Data set [25] in a line: Half life in Sprague-Dawley rat at 50 mg/kg, po. Particulars: in vivo. The class given is ADME, organism-based.
Data set [26] is described as follows: cells. Particulars: Homo sapiens, CDDP-resistant A549 cell, 72 h.
Description: Antiproliferative activity against human CDDP-resistant A549 cell assessed as cell viability incubated for 72 hrs by MTT assay
The nature of data set [27]: Volume of distribution at steady state in Sprague-Dawley rat at 5 mg/kg, iv. Type of data set: ADME, organism-based. The settings on record: in vivo, read-out: Vdss.
Data set [28] can be described thus: AUC (0 to last) in Sprague-Dawley rat at 50 mg/kg, po. The class given is ADME, organism-based. Particulars: in vivo, po, 50 mg/kg.
Data set [29] in a line: Cytotoxicity against human MCF-10A cells assessed as inhibition of cell growth. The class given is toxicity, cell-based.

Chain of Tyrosine-protein kinase receptor UFO (Homo sapiens) (P30530 whole entry): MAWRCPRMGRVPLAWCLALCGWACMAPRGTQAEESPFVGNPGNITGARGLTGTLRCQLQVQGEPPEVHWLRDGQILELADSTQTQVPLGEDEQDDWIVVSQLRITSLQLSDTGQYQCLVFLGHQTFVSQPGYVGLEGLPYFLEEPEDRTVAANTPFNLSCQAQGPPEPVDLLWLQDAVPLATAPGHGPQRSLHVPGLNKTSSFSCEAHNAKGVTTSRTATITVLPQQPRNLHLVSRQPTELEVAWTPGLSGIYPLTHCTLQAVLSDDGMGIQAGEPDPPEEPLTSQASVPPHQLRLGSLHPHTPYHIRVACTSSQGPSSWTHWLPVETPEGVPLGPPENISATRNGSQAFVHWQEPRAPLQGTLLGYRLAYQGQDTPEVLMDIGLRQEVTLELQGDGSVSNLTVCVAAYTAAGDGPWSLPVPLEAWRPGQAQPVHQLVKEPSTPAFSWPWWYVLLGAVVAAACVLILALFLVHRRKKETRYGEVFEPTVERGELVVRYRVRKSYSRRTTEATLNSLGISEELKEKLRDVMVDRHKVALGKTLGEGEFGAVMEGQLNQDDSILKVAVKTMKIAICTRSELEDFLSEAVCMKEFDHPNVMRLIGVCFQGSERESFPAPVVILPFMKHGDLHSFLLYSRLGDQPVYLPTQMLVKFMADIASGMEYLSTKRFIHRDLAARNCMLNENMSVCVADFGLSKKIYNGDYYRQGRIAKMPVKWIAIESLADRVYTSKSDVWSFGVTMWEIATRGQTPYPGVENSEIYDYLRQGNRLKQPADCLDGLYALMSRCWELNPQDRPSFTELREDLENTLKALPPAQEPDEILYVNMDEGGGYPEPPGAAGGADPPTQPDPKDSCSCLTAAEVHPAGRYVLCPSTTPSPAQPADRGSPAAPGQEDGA

A word on the IC50: it is the concentration at which inhibition is half-maximal. In the case of `CC(C(=O)N(C)c1ccc(N/C(=C2\C(=O)Nc3cc(Br)ccc32)c2ccccc2)cc1)N1CCN(CCO)CC1` (racemic), the results for the IC50 at 72 h in data set [1] and in data set [2] were 2.11 µM and 1.98 µM, respectively. The IC50 in data set [3] is 2.31 µM; in [4], 2.06 µM.
As usually defined, the clearance is the rate of elimination divided by the concentration. Broadly, the inhibition is the share of the control response that was lost under treatment. Usually half-life stands for the time needed for the level to fall by half in the phase considered. Broadly, the Cmax is the peak of the concentration-time curve. As usually defined, the Tmax is the time from dosing to the highest level. `COC(=O)c1ccc2c(c1)NC(=O)/C2=C(\Nc1ccc(N(C)C(=O)CN2CCN(C)CC2)cc1)c1ccccc1` [NINTEDANIB]: the half-maximal inhibitory concentration (IC50) in data set [5] is over 10 µM; in [7] it was 10 µM; in [9], over 10 µM; in data set [10], over 10 µM; in [12] it was over 10 µM; in data set [13], over 10 µM. For the same compound, the IC50 is over 10 µM in data set [14]; over 10 µM in data set [16]; 2.87 µM in data set [19]; 3.46 µM in [22]; over 10 µM in data set [26]; 5.34 µM in data set [3]. Besides, the IC50 in data set [4] and in data set [29] was over 10 µM in each case. For the same compound, the clearance in [6] was 111 mL/min/kg. This compound also returned an inhibition in [8] of 32.1%. Moreover, the AUClast in data set [11] is 749 ng·h/mL; in [28], 64.2 ng·h/mL. Further, the F in data set [15] was 7.91%. For the same compound, the inhibition in vivo at 50 mg/kg in data set [17] is 68.1%. Besides, the half-life in data set [18] was 0.194 h; in data set [20] it was 1.76 h; in [25] it was 3.99 h. In addition, the IC50 at 72 h in data set [1] amounted to 4.34 µM; in data set [2], 3.69 µM. The compound also came in with a Cmax in data set [21] of 64.2 ng/mL. In data set [23], the Tmax was found to be 2 h. In data set [24], the Activity was 55.84%. Besides, the Vd in [27] turned out to be 7.91 L/kg.
For the compound `CC(=O)O[C@H]1C(=O)[C@@]2(C)[C@H]([C@H](OC(=O)c3ccccc3)[C@]3(O)C[C@H](OC(=O)[C@H](O)[C@@H](NC(=O)c4ccccc4)c4ccccc4)C(C)=C1C3(C)C)[C@]1(OC(C)=O)CO[C@@H]1C[C@@H]2O` [PACLITAXEL], half-maximal inhibition in data set [14] (IC50) was put at 1.34 µM.
